Results as given in US11414406B2, “Antagonists of the muscarinic acetylcholine receptor M4” (Vanderbilt University, priority 2018, dated 2022).
Where two headings read alike, the source gives them in different places.

Columns and labels:
Human M4 = biological target: T1, Human M4 (Homo sapiens, UniProt P08173); assay: mAChR M4 cell-based functional assay (calcium flux, decrease of EC80 acetylcholine response); settings: for IC50: decrease of response to EC80 acetylcholine
T1 construct: expressed in transfected cells
T1 sequence (P08173 1-479): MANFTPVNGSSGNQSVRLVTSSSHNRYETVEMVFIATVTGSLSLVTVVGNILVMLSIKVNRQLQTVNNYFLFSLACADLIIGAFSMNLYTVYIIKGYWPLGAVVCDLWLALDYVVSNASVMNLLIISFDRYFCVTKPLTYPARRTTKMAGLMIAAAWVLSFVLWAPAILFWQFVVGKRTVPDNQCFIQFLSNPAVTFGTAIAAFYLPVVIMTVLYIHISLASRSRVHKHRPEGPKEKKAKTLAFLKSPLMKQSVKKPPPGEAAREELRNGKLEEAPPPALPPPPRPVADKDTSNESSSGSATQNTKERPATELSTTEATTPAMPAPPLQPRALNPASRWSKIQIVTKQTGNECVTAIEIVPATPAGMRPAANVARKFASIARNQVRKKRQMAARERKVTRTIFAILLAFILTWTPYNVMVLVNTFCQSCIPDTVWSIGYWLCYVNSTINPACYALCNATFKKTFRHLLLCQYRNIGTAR
Method: Human M4 cDNA, along with the chimeric G protein Gqi5, were transfected into Chinese hamster ovary (CHO-K1) cells purchased from the American Type Culture Collection using Lipofectamine2000. M4/Gqi5/CHO cells were grown in Ham's F-12 medium containing 10% heat-inactivated fetal bovine serum (FBS), 20 mM HEPES, 500 μg/mL G418 sulfate, and 200 μg/mL Hygromycin B.
For high throughput measurement of agonist-evoked increases in intracellular calcium, CHO-K1 cells stably expressing muscarinic receptors were plated in growth medium lacking G418 and hygromycin at 15,000 cells/20 μL/well in Greiner 384-well black-walled, tissue culture (TC)-treated, clear-bottom plates (VWR). Cells were incubated overnight at 37° C. and 5% CO2. The next day, cells were washed using an ELX 405 (BioTek) with assay buffer; the final volume was then aspirated to 20 μL. Next, 20 μL of a 2.3 μM stock of Fluo-4/acetoxymethyl ester (Invitrogen, Carlsbad, Calif.), prepared as a 2.3 mM stock in DMSO and mixed in a 1:1 ratio with 10% (w/v) Pluronic F-127 and diluted in assay buffer, was added to the wells and the cell plates were incubated for 50 min at 37° C. and 5% CO2. Dye was removed by washing with the ELX 405 and the final volume was aspirated to 20 μL. Compound master plates were formatted in a 10 point concentration-response curve (CRC) format (1:3 dilutions) in 100% DMSO with a starting concentration of 10 or 1 mM using a BRAVO liquid handler (Agilent). Test compound CRCs were then transferred to daughter plates (240 nL) using the Echo acoustic plate reformatter (Labcyte, Sunnyvale, Calif.) and then diluted into assay buffer (40 μL) to a 2× stock using a Thermo Fisher Combi (Thermo Fisher Scientific, Waltham, Mass.).
Calcium flux was measured using the Functional Drug Screening System (FDSS) 6000 or 7000 (Hamamatsu Corporation, Tokyo, Japan) as an increase in the fluorescent static ratio. Compounds were applied to cells (20 μL, 2×) using the automated system of the FDSS at 2 seconds into the protocol and the data were collected at 1 Hz. At 143 s, 10 μL of an EC20 concentration of the muscarinic receptor agonist acetylcholine was added (5×), followed by the addition of 12 μL of an EC80 concentration of acetylcholine at the 268 s time point (5×). Agonist activity was analyzed as a concentration-dependent increase in calcium mobilization upon compound addition. Positive allosteric modulator activity was analyzed as a concentration-dependent increase in the EC20 acetylcholine response. Antagonist activity was analyzed as a concentration-dependent decrease in the EC80 acetylcholine response; for the purposes of the tables herein, an IC50 (inhibitory concentration 50) was calculated as a concentration-dependent decrease of the response elicited by an EC80 concentration of acetylcholine. Concentration-response curves were generated using a four-parameter logistical equation in XLFit curve fitting software (HMS, Bridgewater, N.J.) for Excel (Microsoft, Redmond, Wash.) or Prism (GraphPad Software, Inc., San Diego, Calif.) or the Dotmatics software platform (Dotmatics, Bishop's Stortford, UK).
Compounds were synthesized as described above. Activity (IC50 and Emin) was determined in the inAChR M4 cell-based functional assay as described above and the data are shown in Table 2. The compound numbers correspond to the compound numbers used in Examples 1 and 2 and Tables 1 and 2.

[1] = tested on: catalepsy induced by the DA receptor antagonist haloperidol; assay: haloperidol-induced catalepsy in mice; assay type: in vivo
Source text: Furthermore, haloperidol-induced catalepsy, a model of parkinsonian motor disability, is reduced in M4 knockout mice as compared to wild-type controls. […] The reversal by scopolamine was uncommonly robust and more pronounced than we observe with agents targeting a number of other targets being evaluated for potential antiparkinsonian effects, including metabotropic glutamate (mGlu) receptors mGlu4 or mGlu5, A2A adenosine receptors, and NMDA receptors. […] Taken together with the extensive studies of M4 modulation of basal ganglia and motor function, these studies provide compelling evidence that M4 is the dominant mAChR subtype involved in the antiparkinsonian effects of non-selective mAChR antagonists and provide support for discovery and development of selective M4 antagonists for treatment of neurodegenerative disease such as PD, dystonia, tardive dyskinesia and other movement disorders.

[2] = M4/Gqi5/CHO-K1 cells, % ACh maximum at 30 μM, read-out: Emin (% ACh maximum at 30 μM)

Fc1ccc(-c2ccc(N[C@H]3[C@@H]4CN(CC5CCOCC5)C[C@@H]43)nn2)c(Cl)c1 [Compound 14, (1R,5S,6s)-N-[6-(2-chloro-4-fluoro-phenyl)pyridazin-3-yl]-3-(tetrahydropyran-4-ylmethyl)-3-azabicyclo[3.1.0]hexan-6-amine]
remaining activity at 30 µM (Human M4; [2]): 12%

c1cnc2ccc(-c3ccc(N[C@H]4[C@@H]5CN(CC6CCOCC6)C[C@@H]54)nn3)cc2c1 [Compound 17, (1R,5S,6s)-N-[6-(6-quinolyl)pyridazin-3-yl]-3-(tetrahydropyran-4-ylmethyl)-3-azabicyclo[3.1.0]hexan-6-amine]
remaining activity at 30 µM (Human M4; [2]): 13% | IC50 (Human M4; M4/Gqi5/CHO-K1 cells): 3760 nM

Cn1cc2cc(-c3ccc(N[C@H]4[C@@H]5CN(CCC(C)(C)C)C[C@@H]54)nn3)ccc2n1 [Compound 39, (1R,5S,6s)-3-(3,3-dimethylbutyl)-N-[6-(2-methylindazol-5-yl)pyridazin-3-yl]-3-azabicyclo[3.1.0]hexan-6-amine]
remaining activity at 30 µM (Human M4; [2]): 5% | IC50 (Human M4; M4/Gqi5/CHO-K1 cells): 139 nM

Cc1nn(C)cc1-c1ccc(CN[C@H]2[C@@H]3CN(CC4CCCCC4)C[C@@H]32)nn1 [Compound 7, (1R,5S,6s)-3-(cyclohexylmethyl)-N-((6-(1,3-dimethylpyrazol-4-yl)pyridazin-3-yl)methyl)-3-azabicyclo[3.1.0]hexan-6-amine]
remaining activity at 30 µM (Human M4; [2]): 32.5%

FC(F)(F)c1ccc(-c2ccc(N[C@H]3[C@@H]4CN(CC5CCOCC5)C[C@@H]43)nn2)cn1 [Compound 20, (1R,5S,6s)-3-(tetrahydropyran-4-ylmethyl)-N-[6-[6-(trifluoromethyl)-3-pyridyl]pyridazin-3-yl]-3-azabicyclo[3.1.0]hexan-6-amine]
remaining activity at 30 µM (Human M4; [2]): 48%

Cc1nn(C)cc1-c1ccc(CN[C@H]2[C@@H]3CN(CCC(C)(C)C)C[C@@H]32)nn1 [Compound 4, (1R,5S,6s)-N-((6-(1,3-dimethyl-1H-pyrazol-4-yl)pyridazin-3-yl)methyl)-3-(3,3-dimethylbutyl)-3-azabicyclo[3.1.0]hexan-6-amine]
remaining activity at 30 µM (Human M4; CHO-K1, read-out: Emin (% ACh maximum at 30 μM)): 36.7%

Fc1ccc(-c2ccc(N[C@H]3[C@@H]4CN(CC5CCOCC5)C[C@@H]43)nn2)cc1 [Compound 10, (1R,5S,6s)-N-[6-(4-fluorophenyl)pyridazin-3-yl]-3-(tetrahydropyran-4-ylmethyl)-3-azabicyclo[3.1.0]hexan-6-amine]
remaining activity at 30 µM (Human M4; [2]): 37%

CN1[C@@H]2C[C@@H](OC(=O)[C@H](CO)c3ccccc3)C[C@H]1[C@@H]1O[C@@H]12 [scopolamine]
reduction of haloperidol-induced catalepsy ([1]; M4 KO mice): ineffective | reversal of haloperidol-induced catalepsy ([1]; WT mice): completely reversed
